{"source": "patent US5684026A", "about": "“Aminocyclopentane derivative” (priority 1994, dated 1997)", "key": {"[1]": {"target": "T1, β-Galactosidase (E. Coli, EC. 3.2.1.23) (Escherichia coli, UniProt P00722)", "T1 construct": "purchased Sigma; host or cells: E. coli", "T1 sequence (P00722 2-1024 limits assumed)": "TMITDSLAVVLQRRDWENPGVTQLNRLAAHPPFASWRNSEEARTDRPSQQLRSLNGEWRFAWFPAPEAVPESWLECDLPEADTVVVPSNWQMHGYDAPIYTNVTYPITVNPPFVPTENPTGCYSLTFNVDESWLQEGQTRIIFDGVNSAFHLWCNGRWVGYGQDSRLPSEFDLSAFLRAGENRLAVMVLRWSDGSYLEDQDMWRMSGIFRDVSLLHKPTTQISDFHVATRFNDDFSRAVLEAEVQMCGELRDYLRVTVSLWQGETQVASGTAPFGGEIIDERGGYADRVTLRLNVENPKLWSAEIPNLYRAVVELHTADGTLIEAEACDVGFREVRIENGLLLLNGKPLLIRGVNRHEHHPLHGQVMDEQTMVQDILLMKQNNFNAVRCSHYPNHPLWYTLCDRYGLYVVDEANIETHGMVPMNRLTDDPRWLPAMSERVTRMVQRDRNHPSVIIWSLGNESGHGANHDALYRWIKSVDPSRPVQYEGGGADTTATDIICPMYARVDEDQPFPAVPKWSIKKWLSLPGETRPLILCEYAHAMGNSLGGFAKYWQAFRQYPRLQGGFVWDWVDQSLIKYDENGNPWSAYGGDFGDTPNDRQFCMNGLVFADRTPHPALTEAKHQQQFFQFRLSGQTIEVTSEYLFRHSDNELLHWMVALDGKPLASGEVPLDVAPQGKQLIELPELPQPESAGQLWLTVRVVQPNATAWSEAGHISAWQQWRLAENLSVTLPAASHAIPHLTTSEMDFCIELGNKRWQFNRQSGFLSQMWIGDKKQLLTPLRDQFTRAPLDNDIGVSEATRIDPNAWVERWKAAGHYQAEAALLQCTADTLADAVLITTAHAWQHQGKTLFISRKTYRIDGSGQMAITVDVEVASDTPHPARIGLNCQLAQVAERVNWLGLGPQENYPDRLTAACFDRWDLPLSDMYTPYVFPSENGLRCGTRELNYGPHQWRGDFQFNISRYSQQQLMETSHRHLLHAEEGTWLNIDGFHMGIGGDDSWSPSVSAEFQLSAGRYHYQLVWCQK", "assay": "β-Galactosidase (E. coli) enzyme inhibition assay (o-nitrophenyl β-D-galactopyranoside)", "assay_type": "biochemical", "conditions": "pH 7.3, room temperature, 30 minutes; read-out: IC50 (M) β-Galactosidase (E. coli)", "experimental": "By using a 96-well microplate, the absorbance (at 405 nm) of liberated p- or o-nitrophenol was measured with a microplate reader (MPR-4Ai, manufactured by Tosoh Corporation).\nThe enzymes employed herein [α-glucosidase (Baker's yeast), β-glucosidase (Almonds), α-galactosidase (E. coli), β-galactosidase (E. coli) and β-galactosidase (Bovine Liver)] were all purchased from Sigma.\nThe substrates (p- or o-nitrophenylglycoside) of these enzymes were all purchased from Sigma.\n4) β-Galactosidase (E. Coli, EC. 3.2.1.23) [described in G. R. Craven, E. Steers, Jr. and C. B. Anfinsen, J. Biol. Chem., 240, 2468-2477 (1965)]\nInto each well were introduced an aqueous solution of a sample (2 μl), a buffer (153 μl), a 20 mM solution of o-nitrophenyl β-D-galactopyranoside in a buffer (25 μl), a 100 mM 2-mercaptoethanol (10 μl) and a (10 μg/ml) enzyme solution in the buffer (10 μl) to give a total volume of 200 μl. After incubating at room temperature (20°-30° C.) for 30 minutes, the absorbance (A405) of o-nitrophenol liberated by this enzyme reaction was measured. To give the blank absorbance (Ablank), the sample (2 μl), the substrate (25 μl), the buffer solution (163 μl) and 2-mercaptoethanol (10 μl) were incubated in the same manner followed by the measurement of the absorbance. To give the control absorbance (Acontrol), on the other hand, water (2 μl), the substrate (25 μl), the buffer solution (153 μl), 2-mercaptoethanol (10 μl) and the enzyme solution (10 μl) were incubated in the same manner followed by the measurement of the absorbance. A 50 mM phosphate buffer solution (pH 7.3, prepared from KH2 PO4 and K2 HPO4, containing 1.3 mM of MgCl2) was employed as the buffer for the enzyme reaction. The IC50 was determined in the same manner as employed in the case of α-glucosidase."}, "[2]": {"target": "T2, α-glucosidase I (Baker's yeast) (Saccharomyces cerevisiae, UniProt P53008)", "T2 construct": "made in house; host or cells: Baker's yeast (native enzyme, prepared by the cited method)", "T2 sequence (P53008 25-833 limits assumed)": "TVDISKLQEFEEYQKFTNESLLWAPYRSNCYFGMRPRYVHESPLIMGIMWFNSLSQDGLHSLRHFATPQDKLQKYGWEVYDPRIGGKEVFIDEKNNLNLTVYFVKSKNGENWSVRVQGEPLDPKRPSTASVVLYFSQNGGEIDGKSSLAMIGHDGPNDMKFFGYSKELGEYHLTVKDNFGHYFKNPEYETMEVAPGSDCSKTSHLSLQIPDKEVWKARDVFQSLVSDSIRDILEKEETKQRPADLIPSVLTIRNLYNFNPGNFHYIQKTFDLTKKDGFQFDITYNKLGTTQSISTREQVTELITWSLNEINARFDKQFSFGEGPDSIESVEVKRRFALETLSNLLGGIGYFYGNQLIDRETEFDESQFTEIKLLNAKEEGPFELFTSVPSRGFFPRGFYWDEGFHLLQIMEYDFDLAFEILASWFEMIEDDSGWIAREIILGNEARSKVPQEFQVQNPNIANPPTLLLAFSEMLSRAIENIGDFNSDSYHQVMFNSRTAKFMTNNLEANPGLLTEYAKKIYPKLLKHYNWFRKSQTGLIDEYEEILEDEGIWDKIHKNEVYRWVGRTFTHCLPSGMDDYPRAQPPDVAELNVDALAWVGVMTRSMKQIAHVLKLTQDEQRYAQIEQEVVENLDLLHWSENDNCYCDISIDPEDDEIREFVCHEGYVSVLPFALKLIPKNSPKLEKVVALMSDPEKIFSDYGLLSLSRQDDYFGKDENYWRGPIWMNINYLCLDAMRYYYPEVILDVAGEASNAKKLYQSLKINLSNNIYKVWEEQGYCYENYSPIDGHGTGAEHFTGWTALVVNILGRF", "assay": "Inhibitory activity on α-glucosidase I (Ki)", "assay_type": "biochemical", "conditions": "α-glucosidase I, substrate 0.25-4.0 mM, 37° C., 1 hour; read-out: Ki", "experimental": "The α-glucosidase I (Baker's yeast) and its substrate (α-D-Glcl→2α-D-Glcl→3α-D-Glc-O(CH2)6 COOCH3) employed herein were prepared in accordance with the method of I. Neverova et al., Anal. Biochem., 222, 190-196 (1994).\nThe following measurements were performed by the methods described in this literature.\nNamely, 25 μl of a buffer solution containing α-glucosidase I was added to a microtube containing the above-mentioned sample and the substrate (α-D-Glcl→2α-D-Glcl→3α-D-Glc-O(CH2)6 COOCH3). After incubating at 37° C. for 1 hour, a 1.25M tris hydrochloride buffer solution (pH 7.6, 25 μl) was added to thereby cease .the reaction. Then the reaction mixture was transferred onto a microplate followed by the addition of 250 μl of a reaction buffer solution [developing solution; 1M tris hydrochloride buffer solution (pH 7.2) containing glucose oxidase (5 units/ml, manufactured by Sigma), horseradish peroxidase (1 purpurogallin units, manufactured by Sigma) and o-dianisidine dihydrochloride (40 μg/ml)]. Then the mixture was incubated at 37° C. for 30 minutes or until an increase in the absorbance attained a plateau. Then the absorbance (A450-650) of the o-dianisidine formed and oxidized by this enzyme reaction was measured. As a blank, the above reaction was repeated but adding neither the above-mentioned sample nor substrate and the absorbance was measured. Also, the above-mentioned reaction buffer solution was added to D-glucose of a known concentration and the resulting mixture was incubated followed by the measurement of the absorbance to thereby examine a relationship between D-glucose concentration and absorbance. Each measurement was effected in two wells at the same time.\nBased on the above-mentioned relationship between D-glucose concentration and absorbance, the amount of glucose liberated from the substrate due to the enzyme reaction of α-glucosidase I in the presence of the sample was determined. From the result thus obtained, Km was determined and then Ki was determined from the sample amount and the Km value."}, "[3]": {"tested_on": "B16 melanoma cells", "assay": "Cytotoxicity, survival ratio by Trypan blue staining", "assay_type": "cell-based", "conditions": "5-100 μM, 24 hours", "experimental": "After 24 hours, the medium was replaced with Dulbecco-modified Eagle medium containing each sample. The incubation was continued under the same conditions for additional 24 hours. Then the cells were harvested by adding EDTA, washed with PBS and stained with 0.3% Trypan blue solution to thereby determine the survival ratio of the cells."}}, "data": [{"smiles": "OC[C@@]12OC(Nc3ccccc3)=N[C@@H]1[C@H](O)[C@@H](O)[C@@H]2O", "note": "[Compound 1-2L, (1S,5R,6S,7R,8S)-1-hydroxymethyl-3-phenylamino-2-oxa-4-azabicyclo[3.3.0]oct-3-ene-6,7,8-triol]", "values": [{"measurement": "IC50", "setting": "[1]", "value": "> 0.0003", "unit": "M"}, {"measurement": "Ki", "setting": "[2]", "value": 51, "unit": "µM"}, {"measurement": "cytotoxicity (in words)", "setting": "[3]", "value": "no cytotoxicity"}]}]}
